Source: patent US9770481B2, “Inhibitors of NOX1” (UNIVERSITY OF PITTSBURGH—OF THE COMMONWEALTH SYSTEM OF …, priority 2011, dated 2017)

Key:
Nox4 = biological target: T1, Nox4 (Homo sapiens, UniProt Q9NPH5); assay: H2O2 production by COS cells transfected with Nox4 oxidase (Amplex red); assay type: cell-based; conditions: 100 nM to 10,000 nM
T1 construct: expressed in transfected cells; host or cells: COS22 / COS cells, transient transfection
T1 sequence (Q9NPH5 1-578): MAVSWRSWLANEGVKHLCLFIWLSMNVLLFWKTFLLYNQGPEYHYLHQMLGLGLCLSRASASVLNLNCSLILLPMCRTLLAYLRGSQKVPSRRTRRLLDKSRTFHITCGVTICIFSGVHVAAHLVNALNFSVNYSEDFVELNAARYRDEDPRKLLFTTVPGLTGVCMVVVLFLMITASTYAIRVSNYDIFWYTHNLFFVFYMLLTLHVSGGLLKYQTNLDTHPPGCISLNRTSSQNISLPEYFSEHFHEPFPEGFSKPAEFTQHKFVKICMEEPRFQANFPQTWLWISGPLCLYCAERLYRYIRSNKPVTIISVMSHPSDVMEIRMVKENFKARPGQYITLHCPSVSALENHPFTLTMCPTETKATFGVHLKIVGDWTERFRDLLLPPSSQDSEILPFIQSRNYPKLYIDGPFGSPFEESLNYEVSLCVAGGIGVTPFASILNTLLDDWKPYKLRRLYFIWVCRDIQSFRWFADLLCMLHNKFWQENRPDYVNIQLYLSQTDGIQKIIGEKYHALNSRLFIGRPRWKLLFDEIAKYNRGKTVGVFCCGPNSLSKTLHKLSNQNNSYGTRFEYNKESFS
T1 sequence (P13498 1-195 partner): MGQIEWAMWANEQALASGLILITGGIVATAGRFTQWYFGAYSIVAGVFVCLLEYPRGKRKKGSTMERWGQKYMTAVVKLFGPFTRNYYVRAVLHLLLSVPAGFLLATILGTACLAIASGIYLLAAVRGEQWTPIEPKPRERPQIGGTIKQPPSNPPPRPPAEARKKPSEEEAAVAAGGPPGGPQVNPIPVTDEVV
Procedure: (§1) To test whether the inhibitory effect of NoxA1ds is specific to Nox1, the effect of NoxA1ds was tested on cells expressing Nox2, Nox4, and Nox5 as well as on purified xanthine oxidase enzyme. To test the effect on Nox2, production of O2^− was measured by the reduction of cytochrome c by cell lysates from COS cells transiently transfected with the Nox2 oxidase, stimulated with LiDS, and the treated with increasing concentrations of NoxA1ds (from 0.1 nM to 10,000 nM). Similarly, production of H2O2 was measured by Amplex red fluorescence by COS cells transiently transfected with the Nox4 oxidase and treated with increasing concentrations of NoxA1ds (from 100 nM to 10,000 nM). Production of O2^− was also measured by the reduction of cytochrome c by cell lysates from HEK293 cells stably transfected with the Nox5 oxidase stimulated with Ca^2+, and treated with increasing concentrations of NoxA1ds (from 0.1 nM to 10,000 nM). Finally, production of O2^− was measured by Electron Paramagnetic Resonance from pure xanthine oxidase enzyme preparations, stimulated with hypoxanthine and treated with increasing concentrations of NoxA1ds (from 0.1 nM to 10,000 nM).

xanthine oxidase = assay: O2- production by pure xanthine oxidase stimulated with hypoxanthine (EPR); assay type: biochemical; conditions: 0.1 nM to 10,000 nM
Procedure: as §1

[1] = biological target: T2, interaction between Nox1 and NoxA1 (Homo sapiens, UniProt Q9Y5S8); assay: FRET between Nox1-YFP and NoxA1-CFP in transfected COS22 cells; assay type: cell-based; conditions: 10 μM, one hour prior to imaging
T2 construct: expressed in transfected cells; host or cells: COS22
T2 sequence (Q9Y5S8 1-564): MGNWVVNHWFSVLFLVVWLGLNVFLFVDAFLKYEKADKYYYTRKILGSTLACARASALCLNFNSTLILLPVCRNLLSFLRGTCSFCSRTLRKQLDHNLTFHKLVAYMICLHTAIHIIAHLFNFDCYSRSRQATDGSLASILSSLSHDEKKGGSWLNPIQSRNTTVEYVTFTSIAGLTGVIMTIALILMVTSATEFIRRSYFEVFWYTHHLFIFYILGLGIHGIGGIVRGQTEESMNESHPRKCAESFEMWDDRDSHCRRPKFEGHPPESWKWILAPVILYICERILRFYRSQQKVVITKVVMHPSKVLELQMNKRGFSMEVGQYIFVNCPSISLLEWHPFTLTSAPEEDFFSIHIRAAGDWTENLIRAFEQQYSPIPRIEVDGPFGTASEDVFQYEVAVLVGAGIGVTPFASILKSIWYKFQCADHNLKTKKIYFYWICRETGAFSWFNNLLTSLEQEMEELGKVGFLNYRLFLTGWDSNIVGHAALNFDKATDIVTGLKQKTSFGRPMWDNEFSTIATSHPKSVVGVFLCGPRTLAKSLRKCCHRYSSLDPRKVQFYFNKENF
T2 sequence (P13498 2-195 partner limits assumed): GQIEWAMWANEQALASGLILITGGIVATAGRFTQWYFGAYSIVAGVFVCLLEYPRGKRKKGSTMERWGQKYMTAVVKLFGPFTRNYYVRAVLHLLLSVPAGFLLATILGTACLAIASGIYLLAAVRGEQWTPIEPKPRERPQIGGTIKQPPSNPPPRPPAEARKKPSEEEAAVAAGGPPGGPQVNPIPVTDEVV
Procedure: FRET (fluorescence resonance energy transfer) studies were performed to study the effect of NoxA1ds on the interaction between Nox1 and NoxA1: In particular, FRET between Nox1-YFP and NoxA1-CFP transfected COS22 cells in the presence or absence of 10 μM NoxA1ds or SCRMB was evaluated. Relative fluorescence of CFP is green while YFP is red. Traces underneath the images indicate fluorescent intensities of CFP and YFP underneath the arrow overlaid on each cell.

[2] = test system: human pulmonary artery endothelial cells; assay: Hypoxia-induced superoxide production by human pulmonary artery endothelial cells; assay type: cell-based
Procedure: Experiments were also performed to evaluate the effect of NoxA1ds on hypoxia-induced superoxide production by human pulmonary artery endothelial cells.

[3] = test system: rat aortic smooth muscle cells; assay: Stretch-induced migration of rat aortic smooth muscle cells (wound closure); assay type: cell-based; conditions: 10 μM added every four hours; cyclic stretch 24 hrs
Procedure: The effect on NoxA1ds on stretch-induced migration of rat aortic smooth muscle cells was studied. Cell monolayer cultures with an introduced gap (“wound”) were subjected to 24 hrs of cyclic stretch (10%, 1 Hz) with 10 μM NoxA1ds or SCRMB control being added every four hours. Cell migration may be assessed as the distance the wound has closed, where greater […] corresponds to greater migration. Cell migration increased as a result of cyclic stretch.

[4] = test system: HT-29 colon adenocarcinoma cells; assay: O2- production by HT-29 cells (SOD inhibitable reduction of cytochrome c); assay type: cell-based; conditions: increasing doses

Substance: H-EPVDALGKAKV-NH2 [NoxA1ds, [NH3^+]-EPVDALGKAKV-[CONH2]]
- Inhibitory effect on Nox4 H2O2 production (Nox4): did not exhibit a significant inhibitory effect
- Inhibitory effect on xanthine oxidase O2- production (xanthine oxidase): did not exhibit a significant inhibitory effect
- CFP fluorescence after photobleaching of Nox1-YFP (FRET) [1]: did not result in a concomitant increase in CFP fluorescence
- O2- production under hypoxia ([2]; hypoxia 1.0% O2, 24 hrs): returned to the amount observed under normoxia
- O2- production under normoxic conditions ([2]; normoxia): negligible effect
- Stretch-induced cell migration (wound closure) [3]: reduced migration to levels observed in non-stretched cells
- Inhibition of O2- production by HT-29 cells [4]: dose-dependent inhibition
